According to the NIST ThermoML archive (doi:10.1016/j.jct.2009.08.018):

Assay: xn = mol fraction of the nth substance listed
Conditions: Liquid, Static

CCCCCCCCCCn1cc[n+](C)c1.O=S(=O)([N-]S(=O)(=O)C(F)(F)F)C(F)(F)F + O=C=O
Conditions	molar volume [m3/mol]
298.15 K, 1474 kPa, x2 = 0.35	0.0002775
298.15 K, 2828 kPa, x2 = 0.562	0.0001997
298.15 K, 4516 kPa, x2 = 0.709	0.000147
298.15 K, 6799 kPa, x2 = 0.81	0.0001111
298.15 K, 8659 kPa, x2 = 0.83	0.0001006
298.15 K, 10909 kPa, x2 = 0.841	9.556e-05
298.15 K, 12873 kPa, x2 = 0.848	9.235e-05
298.15 K, 14847 kPa, x2 = 0.849	9.169e-05
323.15 K, 1439 kPa, x2 = 0.257	0.0003212
323.15 K, 3371 kPa, x2 = 0.489	0.0002347
323.15 K, 6891 kPa, x2 = 0.696	0.0001569
323.15 K, 8581 kPa, x2 = 0.752	0.0001354
323.15 K, 10917 kPa, x2 = 0.8	0.0001145
323.15 K, 13030 kPa, x2 = 0.814	0.0001086
323.15 K, 14596 kPa, x2 = 0.819	0.0001071
343.15 K, 2003 kPa, x2 = 0.302	0.0003089
343.15 K, 3941 kPa, x2 = 0.475	0.0002428
343.15 K, 6242 kPa, x2 = 0.587	0.0002017
343.15 K, 8674 kPa, x2 = 0.683	0.000164
343.15 K, 10773 kPa, x2 = 0.744	0.0001384
343.15 K, 12515 kPa, x2 = 0.776	0.0001249
343.15 K, 14534 kPa, x2 = 0.801	0.000113

CCCCCC[n+]1ccn(C)c1.O=S(=O)([N-]S(=O)(=O)C(F)(F)F)C(F)(F)F + O=C=O
Conditions	molar volume [m3/mol]
298.15 K, 2015 kPa, x2 = 0.396	0.0002205
298.15 K, 3586 kPa, x2 = 0.592	0.000163
298.15 K, 6489 kPa, x2 = 0.762	0.0001127
298.15 K, 8967 kPa, x2 = 0.8	9.883e-05
298.15 K, 10321 kPa, x2 = 0.81	9.556e-05
298.15 K, 11969 kPa, x2 = 0.819	9.198e-05
298.15 K, 13525 kPa, x2 = 0.822	9.084e-05
298.15 K, 14804 kPa, x2 = 0.823	9.095e-05
323.15 K, 800 kPa, x2 = 0.139	0.0003082
323.15 K, 3716 kPa, x2 = 0.487	0.0002013
323.15 K, 5430 kPa, x2 = 0.583	0.0001725
323.15 K, 6560 kPa, x2 = 0.637	0.0001568
323.15 K, 8039 kPa, x2 = 0.692	0.0001395
323.15 K, 9078 kPa, x2 = 0.726	0.0001282
323.15 K, 9969 kPa, x2 = 0.751	0.000118
323.15 K, 11081 kPa, x2 = 0.769	0.0001108
323.15 K, 12224 kPa, x2 = 0.774	0.0001094
323.15 K, 12959 kPa, x2 = 0.779	0.0001079
343.15 K, 1793 kPa, x2 = 0.14	0.0003081
343.15 K, 2754 kPa, x2 = 0.239	0.0002782
343.15 K, 5537 kPa, x2 = 0.436	0.0002194
343.15 K, 8861 kPa, x2 = 0.596	0.0001701
343.15 K, 11560 kPa, x2 = 0.673	0.0001447
343.15 K, 14469 kPa, x2 = 0.721	0.0001282
343.15 K, 19818 kPa, x2 = 0.755	0.0001169
343.15 K, 24708 kPa, x2 = 0.771	0.0001115

CCn1cc[n+](C)c1.O=S(=O)([N-]S(=O)(=O)C(F)(F)F)C(F)(F)F + O=C=O
Conditions	molar volume [m3/mol]
298.15 K, 1235 kPa, x2 = 0.28	0.000204
298.15 K, 3254 kPa, x2 = 0.533	0.0001415
298.15 K, 6471 kPa, x2 = 0.747	9.622e-05
298.15 K, 10194 kPa, x2 = 0.767	9.034e-05
298.15 K, 11608 kPa, x2 = 0.777	8.747e-05
298.15 K, 13084 kPa, x2 = 0.781	8.646e-05
298.15 K, 14794 kPa, x2 = 0.782	8.625e-05
323.15 K, 2005 kPa, x2 = 0.302	0.0002021
323.15 K, 4250 kPa, x2 = 0.483	0.0001607
323.15 K, 6213 kPa, x2 = 0.587	0.0001367
323.15 K, 8156 kPa, x2 = 0.657	0.0001197
323.15 K, 10081 kPa, x2 = 0.711	0.0001049
323.15 K, 12307 kPa, x2 = 0.743	9.597e-05
323.15 K, 14625 kPa, x2 = 0.749	9.492e-05
343.15 K, 2182 kPa, x2 = 0.247	0.0002186
343.15 K, 4070 kPa, x2 = 0.416	0.0001777
343.15 K, 6063 kPa, x2 = 0.509	0.0001559
343.15 K, 7999 kPa, x2 = 0.579	0.0001394
343.15 K, 9938 kPa, x2 = 0.636	0.0001249
343.15 K, 12143 kPa, x2 = 0.684	0.0001117
343.15 K, 14682 kPa, x2 = 0.709	0.0001056
